Source: article PMC5218480 (PLoS ONE, 2017)

System: MV-4-11 cells
Assay: Gene expression microarray analysis (Affymetrix PrimeView) and GSEA
Format: cell-based, human
Design: RFU PODN (11730768_x_at) / Fold change /veh PODN (11730768_x_at) / RFU LINC00158 (11744669_a_at) / Fold change /veh LINC00158 (11744669_a_at) / RFU DUSP10 (11751237_a_at) / Fold change /veh DUSP10 (11751237_a_at) / RFU ID3 (11757404_x_at) / Fold change /veh ID3 (11757404_x_at) / RFU PLEKHG5 (11737974_s_at) / Fold change /veh PLEKHG5 (11737974_s_at) / RFU LRRC4B (11730491_at) / Fold change /veh LRRC4B (11730491_at) / RFU GIMAP4 (11747438_a_at) / Fold change /veh GIMAP4 (11747438_a_at) / RFU KRT8 (11758183_x_at) / Fold change /veh KRT8 (11758183_x_at) / RFU CNN1 (11734310_a_at) / Fold change /veh CNN1 (11734310_a_at) / RFU VPS37D (11726825_at) / Fold change /veh VPS37D (11726825_at) / RFU C10orf10 (11716522_x_at) / Fold change /veh C10orf10 (11716522_x_at) / RFU KIR2DL2 /// KIR2DL4 /// KIR2DL5A /// KIR2DL5B /// KIR2DS1 /// KIR2DS2 /// KIR2DS3 /// KIR2DS4 /// KIR3DL3 /// KIR3DL3 /// KIR3DS1 (11738374_at) / Fold change /veh KIR2DL2 /// KIR2DL4 /// KIR2DL5A /// KIR2DL5B /// KIR2DS1 /// KIR2DS2 /// KIR2DS3 /// KIR2DS4 /// KIR3DL3 /// KIR3DL3 /// KIR3DS1 (11738374_at) / RFU C1QL1 (11718748_at) / Fold change /veh C1QL1 (11718748_at) / RFU TMPRSS4 (11747572_a_at) / Fold change /veh TMPRSS4 (11747572_a_at) / RFU HAMP (11756126_x_at) / Fold change /veh HAMP (11756126_x_at) / RFU RNFT2 (11725882_a_at) / Fold change /veh RNFT2 (11725882_a_at) / RFU NR4A2 (11747474_a_at) / Fold change /veh NR4A2 (11747474_a_at) / RFU ABCC12 (11746883_a_at) / Fold change /veh ABCC12 (11746883_a_at) / RFU TMEM136 (11760407_x_at) / Fold change /veh TMEM136 (11760407_x_at) / RFU CLDN22 /// WWC2 (11732394_at) / Fold change /veh CLDN22 /// WWC2 (11732394_at) / RFU HLA-DPB1 (11760878_x_at) / Fold change /veh HLA-DPB1 (11760878_x_at) / RFU SPINT1 (11716480_a_at) / Fold change /veh SPINT1 (11716480_a_at) / RFU GAP43 (11754022_s_at) / Fold change /veh GAP43 (11754022_s_at) / RFU A4GNT (11735810_at) / Fold change /veh A4GNT (11735810_at) / RFU PRB3 (11715151_x_at) / Fold change /veh PRB3 (11715151_x_at) / RFU TUBB4B (11761932_at) / Fold change /veh TUBB4B (11761932_at) / RFU CAPN14 (11732068_a_at) / Fold change /veh CAPN14 (11732068_a_at) / RFU TMCC2 (11721928_a_at) / Fold change /veh TMCC2 (11721928_a_at) / RFU IRGQ (11745062_a_at) / Fold change /veh IRGQ (11745062_a_at) / RFU FAM174B (11720279_a_at) / Fold change /veh FAM174B (11720279_a_at) / RFU TMPRSS4 (11748680_a_at) / Fold change /veh TMPRSS4 (11748680_a_at) / RFU FAM212B (11763350_a_at) / Fold change /veh FAM212B (11763350_a_at) / RFU PLEKHG5 (11743358_a_at) / Fold change /veh PLEKHG5 (11743358_a_at) / RFU ZSCAN30 (11745921_a_at) / Fold change /veh ZSCAN30 (11745921_a_at) / RFU CMKLR1 (11741424_a_at) / Fold change /veh CMKLR1 (11741424_a_at) / RFU LOC101060620 /// MAPK8IP1 (11723275_at) / Fold change /veh LOC101060620 /// MAPK8IP1 (11723275_at) / RFU SPTSSB (11747773_x_at) / Fold change /veh SPTSSB (11747773_x_at) / RFU PRSS12 (11739890_at) / Fold change /veh PRSS12 (11739890_at) / RFU BIN1 (11741810_x_at) / Fold change /veh BIN1 (11741810_x_at) / RFU WNT11 (11732464_a_at) / Fold change /veh WNT11 (11732464_a_at) / RFU C10orf10 (11716521_a_at) / Fold change /veh C10orf10 (11716521_a_at) / RFU C5orf56 (11738089_at) / Fold change /veh C5orf56 (11738089_at) / RFU CYB561 (11721691_x_at) / Fold change /veh CYB561 (11721691_x_at) / RFU ANKRD19P (11752326_a_at) / Fold change /veh ANKRD19P (11752326_a_at) / RFU OR2T12 /// OR2T33 /// OR2T8 (11738714_s_at) / Fold change /veh OR2T12 /// OR2T33 /// OR2T8 (11738714_s_at) / RFU VCAN (11748164_a_at) / Fold change /veh VCAN (11748164_a_at) / RFU JSRP1 (11732532_at) / Fold change /veh JSRP1 (11732532_at) / RFU KRTAP10-11 (11738290_x_at) / Fold change /veh KRTAP10-11 (11738290_x_at) / RFU MYO3A (11730013_a_at) / Fold change /veh MYO3A (11730013_a_at) / RFU EBF3 (11725865_a_at) / Fold change /veh EBF3 (11725865_a_at) / RFU CAMK2N1 (11719241_x_at) / Fold change /veh CAMK2N1 (11719241_x_at) / RFU C5orf56 (11738088_a_at) / Fold change /veh C5orf56 (11738088_a_at) / RFU OLFML3 (11715873_a_at) / Fold change /veh OLFML3 (11715873_a_at) / RFU LOC100653217 /// NTM (11731650_a_at) / Fold change /veh LOC100653217 /// NTM (11731650_a_at) / RFU MAPK11 (11762145_a_at) / Fold change /veh MAPK11 (11762145_a_at) / RFU FIZ1 (11724087_x_at) / Fold change /veh FIZ1 (11724087_x_at) / RFU OASL (11726364_x_at) / Fold change /veh OASL (11726364_x_at) / RFU SOX15 (11748057_x_at) / Fold change /veh SOX15 (11748057_x_at) / RFU CD79A (11719716_a_at) / Fold change /veh CD79A (11719716_a_at) / RFU HIST1H1D (11736915_at) / Fold change /veh HIST1H1D (11736915_at) / RFU CASKIN2 (11723855_a_at) / Fold change /veh CASKIN2 (11723855_a_at) / RFU LOC730098 (11760151_x_at) / Fold change /veh LOC730098 (11760151_x_at) / RFU OR4N2 (11742367_at) / Fold change /veh OR4N2 (11742367_at) / RFU PRRT2 (11749266_a_at) / Fold change /veh PRRT2 (11749266_a_at) / RFU SNX32 (11753110_a_at) / Fold change /veh SNX32 (11753110_a_at) / RFU CDHR5 (11726645_a_at) / Fold change /veh CDHR5 (11726645_a_at) / RFU RCAN1 (11760418_a_at) / Fold change /veh RCAN1 (11760418_a_at) / RFU FAM167A (11723789_a_at) / Fold change /veh FAM167A (11723789_a_at) / RFU FAM26E (11764081_at) / Fold change /veh FAM26E (11764081_at) / RFU ISYNA1 (11749810_s_at) / Fold change /veh ISYNA1 (11749810_s_at) / RFU ACY1 (11761880_at) / Fold change /veh ACY1 (11761880_at) / RFU 11764098_at / Fold change /veh 11764098_at / RFU SAMD14 (11745864_x_at) / Fold change /veh SAMD14 (11745864_x_at) / RFU NPB (11741838_a_at) / Fold change /veh NPB (11741838_a_at) / RFU TMPRSS6 (11731388_a_at) / Fold change /veh TMPRSS6 (11731388_a_at) / RFU KRTAP10-2 (11738614_at) / Fold change /veh KRTAP10-2 (11738614_at) / RFU ARHGAP8 /// PRR5-ARHGAP8 (11727945_x_at) / Fold change /veh ARHGAP8 /// PRR5-ARHGAP8 (11727945_x_at) / RFU KRTAP5-7 /// NADSYN1 (11734609_at) / Fold change /veh KRTAP5-7 /// NADSYN1 (11734609_at) / RFU RASL12 (11751679_a_at) / Fold change /veh RASL12 (11751679_a_at) / RFU CDKN2B (11736163_a_at) / Fold change /veh CDKN2B (11736163_a_at) / RFU PRF1 (11729649_at) / Fold change /veh PRF1 (11729649_at) / RFU, ZNF638 /// ZNF638-IT1 / Fold change vs veh, ZNF638 /// ZNF638-IT1 / RFU, PANK3 / Fold change vs veh, PANK3 / RFU, SH3YL1 / Fold change vs veh, SH3YL1 / RFU, ZEB2 / Fold change vs veh, ZEB2 / RFU, NRIP1 / Fold change vs veh, NRIP1 / RFU, PTTG1IP / Fold change vs veh, PTTG1IP / RFU, CAPN2 / Fold change vs veh, CAPN2 / RFU, MED14 / Fold change vs veh, MED14 / RFU, SNORA58 / Fold change vs veh, SNORA58 / RFU, C1orf63 / Fold change vs veh, C1orf63 / RFU, LRRFIP1 / Fold change vs veh, LRRFIP1 / RFU, NDUFAF7 / Fold change vs veh, NDUFAF7 / RFU, SLC12A2 / Fold change vs veh, SLC12A2 / RFU, IBTK / Fold change vs veh, IBTK / RFU, ESF1 / Fold change vs veh, ESF1 / Fold change vs veh, TMEM50B / RFU, TAOK1 / Fold change vs veh, TAOK1 / RFU, ACBD3 / Fold change vs veh, ACBD3 / RFU, TMA16 / Fold change vs veh, TMA16 / RFU, RWDD3 / Fold change vs veh, RWDD3 / RFU, BCAT1 / Fold change vs veh, BCAT1 / RFU, EDEM3 / Fold change vs veh, EDEM3 / RFU, TMEM33 / Fold change vs veh, TMEM33 / RFU, WDR75 / Fold change vs veh, WDR75 / RFU, AHCTF1 / Fold change vs veh, AHCTF1 / RFU, TFRC / Fold change vs veh, TFRC / RFU, ZDHHC17 / Fold change vs veh, ZDHHC17 / RFU, NOM1 / Fold change vs veh, NOM1 / RFU, ARL8B / Fold change vs veh, ARL8B / RFU, ZBTB11 / Fold change vs veh, ZBTB11 / RFU, TAMM41 / Fold change vs veh, TAMM41 / RFU, KIAA1704 /// LOC100996395 / Fold change vs veh, KIAA1704 /// LOC100996395 / RFU, ING1 / Fold change vs veh, ING1 / RFU, TRMT61B / Fold change vs veh, TRMT61B / RFU, FUBP3 / Fold change vs veh, FUBP3 / RFU, TP53 / Fold change vs veh, TP53 / RFU, TNKS2 / Fold change vs veh, TNKS2 / RFU, ZFP14 / Fold change vs veh, ZFP14 / RFU, ACTR2 / Fold change vs veh, ACTR2 / RFU, PPP3R1 / Fold change vs veh, PPP3R1 / RFU, PIK3R1 / Fold change vs veh, PIK3R1 / RFU, HNRNPA1 / Fold change vs veh, HNRNPA1 / RFU, RNF170 / Fold change vs veh, RNF170 / RFU, ZNF28 / Fold change vs veh, ZNF28 / RFU, RNGTT / Fold change vs veh, RNGTT / RFU, OGT / Fold change vs veh, OGT / RFU, BRD1 / Fold change vs veh, BRD1 / RFU, MARS / Fold change vs veh, MARS / RFU, ZNF655 / Fold change vs veh, ZNF655 / RFU, FAHD1 / Fold change vs veh, FAHD1 / RFU, BDP1 / Fold change vs veh, BDP1 / RFU, LRRCC1 / Fold change vs veh, LRRCC1 / RFU, ARID1A / Fold change vs veh, ARID1A / RFU, ZNF146 / Fold change vs veh, ZNF146 / RFU, ZNF330 / Fold change vs veh, ZNF330 / RFU, GPN3 / Fold change vs veh, GPN3 / RFU, C9orf123 / Fold change vs veh, C9orf123 / RFU, N4BP2L2 / Fold change vs veh, N4BP2L2 / RFU, ARFIP1 / Fold change vs veh, ARFIP1 / RFU, FAM179B / Fold change vs veh, FAM179B / RFU, BCL10 / Fold change vs veh, BCL10 / RFU, UHRF1BP1L / Fold change vs veh, UHRF1BP1L / RFU, BET1 / Fold change vs veh, BET1 / RFU, CNOT2 / Fold change vs veh, CNOT2 / RFU, ZNF268 / Fold change vs veh, ZNF268 / Fold change vs veh, ZNF507 / RFU, DGCR2 / Fold change vs veh, DGCR2 / RFU, WDSUB1 / Fold change vs veh, WDSUB1 / Fold change vs veh, HSP90B1 /// MIR3652 / RFU, ADSS / Fold change vs veh, ADSS / RFU, GK / Fold change vs veh, GK / RFU, ZNF148 / Fold change vs veh, ZNF148 / RFU, TAF9 / Fold change vs veh, TAF9 / RFU, SLC1A5 / Fold change vs veh, SLC1A5 / RFU, SLMO2 / Fold change vs veh, SLMO2 / RFU, ABCC4 / Fold change vs veh, ABCC4 / RFU, LOC101060439 /// RAP1B / Fold change vs veh, LOC101060439 /// RAP1B / RFU, RFX7 / Fold change vs veh, RFX7 / RFU, GTPBP10 / Fold change vs veh, GTPBP10 / RFU, CNEP1R1 / Fold change vs veh, CNEP1R1 / RFU, BIVM-ERCC5 /// ERCC5 / Fold change vs veh, BIVM-ERCC5 /// ERCC5 / RFU, ILF3 / Fold change vs veh, ILF3 / RFU 11762660_at / Fold change /veh 11762660_at / RFU VCAN (11757783_s_at) / Fold change /veh VCAN (11757783_s_at) / RFU DDX43 (11728927_at) / Fold change /veh DDX43 (11728927_at) / RFU KRT8 (11758188_x_at) / Fold change /veh KRT8 (11758188_x_at) / RFU NKD1 (11759106_at) / Fold change /veh NKD1 (11759106_at) / RFU SRD5A1 (11742802_a_at) / Fold change /veh SRD5A1 (11742802_a_at) / RFU TPSAB1 /// TPSB2 (11721975_s_at) / Fold change /veh TPSAB1 /// TPSB2 (11721975_s_at) / RFU GSTM3 (11746129_a_at) / Fold change /veh GSTM3 (11746129_a_at) / RFU IL23R (11737362_x_at) / Fold change /veh IL23R (11737362_x_at) / RFU TMEM51 (11727254_a_at) / Fold change /veh TMEM51 (11727254_a_at) / RFU PIWIL2 (11732686_x_at) / Fold change /veh PIWIL2 (11732686_x_at) / RFU ORM1 (11744905_x_at) / Fold change /veh ORM1 (11744905_x_at) / RFU CCDC152 (11743942_at) / Fold change /veh CCDC152 (11743942_at) / RFU ECM1 (11717891_a_at) / Fold change /veh ECM1 (11717891_a_at) / RFU IL23R (11748794_a_at) / Fold change /veh IL23R (11748794_a_at) / RFU TNFAIP8L3 (11732012_x_at) / Fold change /veh TNFAIP8L3 (11732012_x_at) / RFU MBOAT4 (11741988_at) / Fold change /veh MBOAT4 (11741988_at) / RFU 11764193_at / Fold change /veh 11764193_at / RFU TMEM53 (11763286_at) / Fold change /veh TMEM53 (11763286_at) / RFU MAGEB2 (11727129_at) / Fold change /veh MAGEB2 (11727129_at) / RFU TMEM200A (11744735_a_at) / Fold change /veh TMEM200A (11744735_a_at) / RFU CCDC152 (11751479_a_at) / Fold change /veh CCDC152 (11751479_a_at) / RFU FAM211A (11726209_a_at) / Fold change /veh FAM211A (11726209_a_at) / RFU RGS16 (11746705_a_at) / Fold change /veh RGS16 (11746705_a_at) / RFU VCAN (11755009_s_at) / Fold change /veh VCAN (11755009_s_at) / RFU RHOB (11743442_s_at) / Fold change /veh RHOB (11743442_s_at) / RFU RGS16 (11720943_a_at) / Fold change /veh RGS16 (11720943_a_at) / RFU RGS16 (11720944_at) / Fold change /veh RGS16 (11720944_at) / RFU, VPS4B / Fold change vs veh, VPS4B / RFU, CREB1 / Fold change vs veh, CREB1 / RFU, DNAJC13 / Fold change vs veh, DNAJC13 / RFU, GNAQ / Fold change vs veh, GNAQ / RFU, CDK5R1 / Fold change vs veh, CDK5R1 / RFU, ZRANB3 / Fold change vs veh, ZRANB3 / RFU, CUL4A / Fold change vs veh, CUL4A / RFU, CCNY / Fold change vs veh, CCNY / RFU, UFL1 / Fold change vs veh, UFL1 / RFU, COG3 / Fold change vs veh, COG3 / RFU, DIAPH2 / Fold change vs veh, DIAPH2 / RFU, SKA2 / Fold change vs veh, SKA2 / RFU, AFF3 / Fold change vs veh, AFF3 / RFU, LMF1 / Fold change vs veh, LMF1 / RFU, IPO11 / Fold change vs veh, IPO11 / RFU, DFFB / Fold change vs veh, DFFB / RFU, FOXP1 / Fold change vs veh, FOXP1 / RFU, CARD8 / Fold change vs veh, CARD8 / RFU, STRN3 / Fold change vs veh, STRN3 / RFU, ADK / Fold change vs veh, ADK / RFU, RASSF2 / Fold change vs veh, RASSF2 / RFU, WIPF1 / Fold change vs veh, WIPF1 / RFU, LARP1B / Fold change vs veh, LARP1B / RFU, RASA1 / Fold change vs veh, RASA1 / RFU, RB1 / Fold change vs veh, RB1 / RFU, PPFIA1 / Fold change vs veh, PPFIA1 / RFU, MAT2A / Fold change vs veh, MAT2A / RFU, CCT5 / Fold change vs veh, CCT5 / RFU, WDR92 / Fold change vs veh, WDR92 / RFU, CUX1 / Fold change vs veh, CUX1 / RFU, TTC7A / Fold change vs veh, TTC7A / RFU, TMEM135 / Fold change vs veh, TMEM135 / RFU, DEPTOR / Fold change vs veh, DEPTOR / RFU, CPM / Fold change vs veh, CPM / RFU, DNAJB6 / Fold change vs veh, DNAJB6 / RFU, CACNA2D3 / Fold change vs veh, CACNA2D3 / RFU, DTX4 / Fold change vs veh, DTX4 / RFU, TFCP2 / Fold change vs veh, TFCP2 / RFU, GMCL1 /// GMCL1P1 / Fold change vs veh, GMCL1 /// GMCL1P1 / RFU, AEBP2 / Fold change vs veh, AEBP2 / RFU, SNHG1 /// SNORD22 /// SNORD25 /// SNORD26 /// SNORD27 /// SNORD28 /// SNORD29 /// SNORD31 / Fold change vs veh, SNHG1 /// SNORD22 /// SNORD25 /// SNORD26 /// SNORD27 /// SNORD28 /// SNORD29 /// SNORD31 / Fold change (Aza/veh), C12orf56 (ProbeSet 11735607_a_at) / Fold change (ACY-1035/veh), C12orf56 (ProbeSet 11735607_a_at) / Fold change (Aza/veh), FGFR1OP (ProbeSet 11751329_s_at) / Fold change (ACY-1035/veh), FGFR1OP (ProbeSet 11751329_s_at) / Fold change (Aza/veh), VPS36 (ProbeSet 11739960_a_at) / Fold change (ACY-1035/veh), VPS36 (ProbeSet 11739960_a_at) / RFU SYPL1 (11715823_x_at) / Fold change /veh SYPL1 (11715823_x_at) / RFU IGFBP7 (11715501_s_at) / Fold change /veh IGFBP7 (11715501_s_at) / RFU REEP3 (11722064_at) / Fold change /veh REEP3 (11722064_at) / RFU IGLL1 (11728026_x_at) / Fold change /veh IGLL1 (11728026_x_at): dose or concentration left out as unconfirmed
Details: ProbeSet 11719632_a_at; LIST B

Nc1ccc(-c2cccs2)cc1NC(=O)c1ccc2c(c1)cc(C1CC1)n2CCN1CCOCC1 [ACY-1035]
RFU, ABCC4: 40.19 RFU
